# Molecular target: T1, recombinant human 15-PGDH (Homo sapiens, UniProt P15428)
# T1 construct: purchased R&D Systems
# T1 sequence (P15428 1-266): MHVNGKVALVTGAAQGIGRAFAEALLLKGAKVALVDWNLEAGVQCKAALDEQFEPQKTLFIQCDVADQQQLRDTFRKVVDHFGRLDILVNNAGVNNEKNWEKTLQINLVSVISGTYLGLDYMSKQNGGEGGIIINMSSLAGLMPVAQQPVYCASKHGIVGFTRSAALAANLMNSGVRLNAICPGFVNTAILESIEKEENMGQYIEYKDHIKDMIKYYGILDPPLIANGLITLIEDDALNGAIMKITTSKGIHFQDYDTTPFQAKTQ
# Experiment: 15-PGDH enzyme inhibition test
# Assay type: biochemical
# Conditions: 4 nM recombinant human 15-PGDH, 30 μM PGE2, 1 mM NAD+, 60 minutes after starting the reaction; read-out: IC50 Value
# Summary of the method: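 4 nM recombinant human enzyme pre-incubated with compound 12 min at room temperature in 50 mM Tris-HCl pH 8.0 with 0.01% Tween 20 and 0.01% bovine gamma globulin. Reaction started with 30 μM PGE2 and 1 mM NAD+, read after 60 min by fluorescence (ex 340/em 440 nm). IC50 from concentration-response curve.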
row,IC50,SMILES
1,< 10 nM,O=C(O)c1ccc(N2CCOc3cc(C(=O)N4CCC(F)(F)CC4)ccc32)cc1 [Example 2-35]
2,> 100 nM,O=C(O)c1ccccc1N1CCOc2cc(C(=O)N3CCCCC3)cnc21 [Example 2-36]
3,> 100 nM,CC(C)(C(=O)O)c1ccc(N2CCOc3cc(C(=O)N4CCCCC4)cnc32)cc1 [Example 2-37]
4,< 10 nM,O=C(O)c1ccc(N2CCOc3cc(C(=O)N4CCCCC4)cnc32)cn1 [Example 2-38]
5,< 10 nM,"O=C(c1ccc2c(c1)OCCN2c1ccc(-c2nnn[nH]2)cc1)N1CCC(F)(F)CC1 [Example 3-1, (4-(4-(1H-Tetrazol-5-yl)phenyl)-3,4-dihydro-2H-benzo[b][1,4]oxazin-7-yl)(4,4-difluoropiperidin-1-yl)methanone]"
6,< 10 nM,"Cc1c(C(=O)N2CCCCC2)ccc2c1OCCN2c1ccc(C(=O)O)cc1 [Example 4-1, 4-(8-Methyl-7-(piperidine-1-carbonyl)-2,3-dihydro-4H-benzo[b][1,4]oxazin-4-yl)benzoic Acid]"
7,< 10 nM,O=C(O)c1ccc(N2CCOc3cc(C(=O)N4CCCCC4)cnc32)cc1 [Example 4-2]
8,< 10 nM,O=C(O)c1ccc(N2CCOc3nc(C(=O)N4CCCCC4)ccc32)cc1 [Example 4-4]
9,< 10 nM,O=C(O)c1ccc(N2CCOc3cc(C(=O)N4CCC(F)(F)CC4)cnc32)cc1 [Example 4-5]
10,< 10 nM,O=C(O)c1ccc(N2CCOc3cc(C(=O)N4CCCC(F)(F)C4)cnc32)cc1 [Example 4-6]
11,< 10 nM,O=C(O)c1ccc(N2CCOc3cc(C(=O)N4CCC[C@@H](F)C4)cnc32)cc1 [Example 4-7]
12,< 10 nM,O=C(O)c1ccc(N2CCOc3cc(C(=O)N4CCC[C@H](F)C4)cnc32)cc1 [Example 4-8]
13,< 10 nM,O=C(O)c1ccc(N2CCOc3cc(C(=O)N4CC=CCC4)cnc32)cc1 [Example 4-9]
14,10 to 100 nM,O=C(O)c1ccc(N2CCOc3cc(C(=O)N4CCOCC4)cnc32)cc1 [Example 4-10]
15,10 to 100 nM,CN1CCN(C(=O)c2cnc3c(c2)OCCN3c2ccc(C(=O)O)cc2)CC1 [Example 4-11]
16,< 10 nM,O=C(O)c1ccc(N2CCOc3cc(C(=O)N4CCCCC4)sc32)cc1 [Example 4-12]
17,10 to 100 nM,O=C(O)C1CCC(N2CCOc3cc(C(=O)N4CCCCC4)ccc32)CC1 (stereo not shown) [Example 4-13]
18,< 10 nM,O=C(O)C1CCC(N2CCOc3cc(C(=O)N4CCCCC4)ccc32)CC1 (stereo not shown) [Example 4-14]
19,10 to 100 nM,COc1cc(N2CCOc3cc(C(=O)N4CCCCC4)cnc32)ccc1C(=O)O [Example 4-15]
20,< 10 nM,Cc1cc(N2CCOc3cc(C(=O)N4CCCCC4)cnc32)ccc1C(=O)O [Example 4-16]
21,< 10 nM,O=C(O)c1ccc(N2CCOc3cc(C(=O)N4CCCCC4)cnc32)cc1Cl [Example 4-17]
22,10 to 100 nM,Cc1cc(C(=O)O)ccc1N1CCOc2cc(C(=O)N3CCCCC3)cnc21 [Example 4-18]
23,10 to 100 nM,O=C(O)c1cccc(N2CCOc3cc(C(=O)N4CCCCC4)cnc32)c1 [Example 4-19]
24,10 to 100 nM,O=C(O)c1cccc(N2CCCc3cc(C(=O)N4CCCCC4)cnc32)c1 [Example 4-20]
25,< 10 nM,CN1CCN(c2ccc(C(=O)O)cc2)c2ncc(C(=O)N3CCCCC3)cc21 [Example 4-21]

row,IC50,SMILES
1,< 10 nM,"COc1cc(N2CCOc3cc(C(=O)N4CC=CCC4)ccc32)ccc1C(N)=O [Example 5-1, 2-Methoxy-4-(7-(1,2,3,6-tetrahydropyridine-1-carbonyl)-2,3-dihydro-4H-benzo[b][1,4]oxazin-4-yl)benzamide]"
2,< 10 nM,COc1cc(N2CCOc3cc(C(=O)N4CCC(F)(F)CC4)ccc32)ccc1C(N)=O [Example 5-2]
3,< 10 nM,CNC(=O)c1ccc(N2CCOc3cc(C(=O)N4CC=CCC4)ccc32)cc1OC [Example 5-3]
4,< 10 nM,"CNC(=O)c1ccc(N2CCOc3cc(C(=O)N4CCC(F)(F)CC4)ccc32)cc1OC [Example 6-1, 4-(7-(4,4-Difluoropiperidine-1-carbonyl)-2,3-dihydro-4H-benzo[b][1,4]oxazin-4-yl)-2-methoxy-N-methylbenzamide]"
5,< 10 nM,NC(=O)c1ccc(N2CCOc3cc(C(=O)N4CCCCC4)ccc32)nc1 [Example 6-2]
6,< 10 nM,NC(=O)c1ccc(N2CCOc3cc(C(=O)N4CCCCC4)ccc32)cn1 [Example 6-3]
7,< 10 nM,NC(=O)c1ccc(N2CCOc3cc(C(=O)N4CCCCC4)cnc32)cc1F [Example 6-4]
8,< 10 nM,CNC(=O)c1ccc(N2CCOc3cc(C(=O)N4CCCCC4)cnc32)cc1F [Example 6-5]
9,< 10 nM,NC(=O)Cn1nc2cc(N3CCOc4cc(C(=O)N5CCCCC5)cnc43)ccn2c1=O [Example 6-6]
10,< 10 nM,CNC(=O)Cn1nc2cc(N3CCOc4cc(C(=O)N5CCCCC5)cnc43)ccn2c1=O [Example 6-7]
11,< 10 nM,CN(C)C(=O)Cn1nc2cc(N3CCOc4cc(C(=O)N5CCCCC5)cnc43)ccn2c1=O [Example 6-8]
12,> 100 nM,CNC(=O)c1cn(C)c2cc(N3CCOc4cc(C(=O)N5CCCCC5)cnc43)ccc12 [Example 6-10]
13,10 to 100 nM,CNC(=O)c1cc2ccc(N3CCOc4cc(C(=O)N5CCCCC5)cnc43)cc2n1C [Example 6-11]
14,> 100 nM,CNC(=O)c1ccc(N2CCOc3cc(C(=O)N4CCCCC4)cnc32)cc1C [Example 6-12]
15,> 100 nM,CNC(=O)c1ccc(N2CCOc3cc(C(=O)N4CCCCC4)cnc32)c(C)c1 [Example 6-13]
16,< 10 nM,NC(=O)c1ccc(N2CCCc3cc(C(=O)N4CCCCC4)cnc32)cc1 [Example 6-14]
17,10 to 100 nM,CN(C)C(=O)c1ccc(N2CCCc3cc(C(=O)N4CCCCC4)cnc32)cc1 [Example 6-15]
18,10 to 100 nM,CNC(=O)C1CCC(N2CCOc3cc(C(=O)N4CCCCC4)ccc32)CC1 (stereo not shown) [Example 6-16]
19,< 10 nM,NC(=O)c1ccc(N2CCOc3cc(C(=O)N4CCCCC4)cnc32)cc1 [Example 6-17]
20,< 10 nM,CNC(=O)c1ccc(N2CCOc3cc(C(=O)N4CCCCC4)cnc32)cc1 [Example 6-18]
21,< 10 nM,CN(C)C(=O)c1ccc(N2CCOc3cc(C(=O)N4CCCCC4)cnc32)cc1 [Example 6-19]
22,> 100 nM,CC(C)(C(N)=O)c1ccc(N2CCOc3cc(C(=O)N4CCCCC4)cnc32)cc1 [Example 6-20]
23,< 10 nM,NC(=O)c1ccc(N2CCOc3cc(C(=O)N4CCCCC4)cnc32)cn1 [Example 6-21]
24,< 10 nM,CNC(=O)c1ccc(N2CCOc3cc(C(=O)N4CCCCC4)cnc32)cn1 [Example 6-22]
25,< 10 nM,Cn1nc2cc(N3CCOc4cc([S+]([O-])C5CCCCC5)cnc43)ccn2c1=O (stereo not shown) [Example 7-5]

row,IC50,SMILES
1,> 100 nM,Cn1nc2cc(N3CCOc4cc(S(=O)(=O)C5CCCCC5)cnc43)ccn2c1=O [Example 7-6]
2,< 10 nM,Cn1nc2cc(N3CCCc4cc([S+]([O-])C5CCCCC5)cnc43)ccn2c1=O (stereo not shown) [Example 7-7]
3,> 100 nM,Cn1nc2cc(N3CCCc4cc(S(=O)(=O)C5CCCCC5)cnc43)ccn2c1=O [Example 7-8]
4,< 10 nM,CN1Cc2cc(N3CCOc4cc([S+]([O-])C5CCCCC5)cnc43)ccc2C1=O (stereo not shown) [Example 7-9]
5,10 to 100 nM,CN1Cc2cc(N3CCOc4cc(S(=O)(=O)C5CCCCC5)cnc43)ccc2C1=O [Example 7-10]
6,10 to 100 nM,CC(C)(C)OC(=O)c1ccc(N2CCOc3cc(C(=O)N4CCC[C@@H](F)C4)cnc32)cc1 [Example 8-7]
7,> 100 nM,CC(C)(C)OC(=O)c1ccc(N2CCOc3cc(C(=O)N4CCC[C@H](F)C4)cnc32)cc1 [Example 8-8]
8,10 to 100 nM,O=C(c1ccc2c(c1)OCCN2C1CCCCC1)N1CCCCC1 [Example 8-14]
9,< 10 nM,CCn1nc2cc(N3CCOc4cc(C(=O)N5CCCCC5)cnc43)ccn2c1=O [Example 8-15]
10,< 10 nM,CCn1nc2cc(N3CCOc4cc(C(=O)N5CCC5)cnc43)ccn2c1=O [Example 8-16]
11,< 10 nM,CCn1nc2cc(N3CCOc4cc(C(=O)N5CCCCCCC5)cnc43)ccn2c1=O [Example 8-17]
12,< 10 nM,CCN1Cc2cc(N3CCOc4cc(C(=O)N5CCCCC5)cnc43)ccc2C1=O [Example 8-18]
13,< 10 nM,CCn1nc2cc(N3CCOc4cc(C(=O)N5CCCC5)cnc43)ccn2c1=O [Example 8-19]
14,< 10 nM,Cn1nc2cc(N3CCOc4cc(C(=O)N5CCCC5)cnc43)ccn2c1=O [Example 8-20]
15,< 10 nM,C[C@@H]1CCCCN1C(=O)c1cnc2c(c1)OCCN2c1ccn2c(=O)n(C)nc2c1 [Example 8-21]
16,10 to 100 nM,C[C@@H]1CCCN1C(=O)c1cnc2c(c1)OCCN2c1ccn2c(=O)n(C)nc2c1 [Example 8-22]
17,< 10 nM,Cn1nc2cc(N3CCOc4cc(C(=O)N5CCC[C@@H](F)C5)cnc43)ccn2c1=O [Example 8-23]
18,< 10 nM,Cn1nc2cc(N3CCOc4cc(C(=O)N5CCCC(F)(F)C5)cnc43)ccn2c1=O [Example 8-24]
19,< 10 nM,Cn1nc2cc(N3CCOc4cc(C(=O)N5CCC(F)(F)C5)cnc43)ccn2c1=O [Example 8-25]
20,< 10 nM,Cn1nc2cc(N3CCOc4cc(C(=O)N5CCC(F)(F)CC5)cnc43)ccn2c1=O [Example 8-26]
21,< 10 nM,Cn1nc2cc(N3CCOc4cc(C(=O)N5CCC[C@H](F)C5)cnc43)ccn2c1=O [Example 8-27]
22,< 10 nM,C[C@H]1CCCCN1C(=O)c1cnc2c(c1)OCCN2c1ccn2c(=O)n(C)nc2c1 [Example 8-28]
23,< 10 nM,C[C@H]1CCCN1C(=O)c1cnc2c(c1)OCCN2c1ccn2c(=O)n(C)nc2c1 [Example 8-29]

# Reference: patent publication US12577217B2, “15-PGDH inhibitor” (KYORIN Pharmaceutical Co., Ltd., priority 2019, dated 2026)
